According to paper PMC3502340, “Agglutinating Activity and Structural Characterization of Scalarin, the Major Egg Protein of the Snail Pomacea scalaris (d’Orbigny, 1832)” (PLoS ONE, 2012):

Test system: T1, scalarin (PsSC)
T1 construct: native, purified from newly laid egg clutches (ultracentrifugation, size exclusion); 380 kDa glycosylated carotenoprotein oligomer of 35, 28 and 24 kDa subunits
Test: inhibition of rabbit erythrocyte hemagglutination (titre)
Assay type: cell-based, Pomacea scalaris
Conditions: 200000 µM, TBS pH 7.4, 37 °C, 1 h preincubation, 2% rabbit erythrocytes
Source text: inhibition of rabbit erythrocyte hemagglutination (titre) on scalarin (PsSC)

Row | Structure (SMILES) | % Inhibition [%] | % Inhibition (text prints 99.99%) [%]
1 | CC(=O)N[C@H]1C(O)O[C@H](CO)[C@H](O)[C@@H]1O (stereo partly drawn) [N-acetyl-D-galactosamine] | 50.0 | –
2 | N[C@H]1C(O)O[C@H](CO)[C@@H](O)[C@@H]1O (stereo partly drawn) [glucosamine] | 99.6 | –
3 | N[C@H]1C(O)O[C@H](CO)[C@H](O)[C@@H]1O (stereo partly drawn) [galactosamine] | – | 99.9
